From article PMC8952190, “Bromodomain and Extra-Terminal Inhibitor BMS-986158 Reverses Latent HIV-1 Infection In Vitro and Ex Vivo by Increasing CDK9 Phosphorylation and Recruitment” (Pharmaceuticals, 2022) come the findings set out here.

One assay concerns the target T1, BRD2 (Homo sapiens, UniProt P25440).
T1 construct: BRD2(1,2)
Put plainly: HTRF binding assay (cell-free, protein and peptide).

In another assay the target is BRD4 (Homo sapiens, UniProt O60885). Described as above.

T1 sequence (P25440 whole entry): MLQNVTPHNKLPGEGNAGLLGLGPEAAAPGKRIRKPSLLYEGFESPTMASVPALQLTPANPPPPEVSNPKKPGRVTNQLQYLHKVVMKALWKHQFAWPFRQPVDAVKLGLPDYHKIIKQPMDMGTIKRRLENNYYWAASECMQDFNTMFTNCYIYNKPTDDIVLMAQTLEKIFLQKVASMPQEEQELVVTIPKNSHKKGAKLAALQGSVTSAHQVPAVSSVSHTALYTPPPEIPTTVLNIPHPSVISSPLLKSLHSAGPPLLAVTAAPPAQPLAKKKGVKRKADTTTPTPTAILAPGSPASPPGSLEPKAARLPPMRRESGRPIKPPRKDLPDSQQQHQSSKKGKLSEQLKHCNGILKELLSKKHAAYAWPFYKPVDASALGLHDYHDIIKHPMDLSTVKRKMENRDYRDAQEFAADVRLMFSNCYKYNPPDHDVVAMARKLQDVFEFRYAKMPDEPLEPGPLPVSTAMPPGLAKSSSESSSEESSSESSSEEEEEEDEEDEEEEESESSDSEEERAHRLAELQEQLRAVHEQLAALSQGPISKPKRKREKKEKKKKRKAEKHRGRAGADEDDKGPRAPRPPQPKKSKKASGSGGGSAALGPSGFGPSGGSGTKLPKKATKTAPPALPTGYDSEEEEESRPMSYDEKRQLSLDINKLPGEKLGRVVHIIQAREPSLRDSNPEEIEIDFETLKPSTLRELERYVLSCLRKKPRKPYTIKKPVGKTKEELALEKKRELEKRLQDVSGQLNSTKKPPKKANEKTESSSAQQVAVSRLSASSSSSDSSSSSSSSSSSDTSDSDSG

On to `Cc1nnn(C)c1-c1cnc2c3ccc(C(C)(C)O)cc3n([C@H](c3ccccc3)C3CCOCC3)c2c1` [BMS-986158], for which the IC50 turned out to be 1.17 nM on BRD2 and 2.75 nM on BRD4.

The IC50 is the midpoint of a concentration-inhibition curve. A lower IC50 goes with higher potency.
